4 compounds from ChEMBL document CHEMBL1128088, “Synthesis and activity of cereulide, a cyclic dodecadepsipeptide ionophore as emetic toxin from Bacillus cereus” (1995) can be followed below.

One test deals with HEp-2. Put plainly: Effect on vacuole response in the HEp-2 cells. It counts as functional, Homo sapiens.
The subject of test [1] is Suncus murinus. The experiment in a line: Effect on latency at dose 16 ug/Kg administered ip. It counts as functional.
Test [2] has as its system Suncus murinus. The experiment in a line: Effect on number of suncus vomited at dose 8 ug/Kg administered po (out of 5). In kind it is functional.
Test [3] concerns Suncus murinus. Put plainly: Effect on number of vomiting episodes at dose 32 ug/Kg administered ip. It counts as functional.
The subject of test [4] is Suncus murinus. The experiment in a line: Effect on latency at dose 4 ug/Kg administered ip. In kind it is functional.
The subject of test [5] is Suncus murinus. The experiment in a line: Effect on latency at dose 32 ug/Kg administered ip. In kind it is functional.
Test [6] concerns Suncus murinus. The experiment in a line: Effect on number of suncus vomited at dose 32 ug/Kg administered ip (out of 5). It counts as functional.
Test [7] has as its system Suncus murinus. Put plainly: Effect on latency at dose 32 ug/Kg administered po. In kind it is functional.
Test [8] has as its system Suncus murinus. The experiment in a line: Effect on number of suncus vomited at dose 2 ug/Kg administered ip (out of 3). In kind it is functional.
Test [9] deals with Suncus murinus. Put plainly: Effect on number of vomiting episodes at dose 4 ug/Kg administered ip. In kind it is functional.
Test [10] concerns Suncus murinus. Put plainly: Effect on number of vomiting episodes at dose 16 ug/Kg administered ip. In kind it is functional.
The test system of test [11] is Suncus murinus. Put plainly: Effect on number of suncus vomited at dose 4 ug/Kg administered po (out of 5). In kind it is functional.
In test [12] the test system is Suncus murinus. The experiment in a line: Effect on number of vomiting episodes at dose 8 ug/Kg administered ip. It counts as functional.
Test [13] has as its system Suncus murinus. Put plainly: Effect on number of vomiting episodes at dose 32 ug/Kg administered po. It counts as functional.
The test system of test [14] is Suncus murinus. Put plainly: Effect on number of suncus vomited at dose 16 ug/Kg administered ip (out of 5). It counts as functional.
Test [15] concerns Suncus murinus. The experiment in a line: Effect on latency at dose 16 ug/Kg administered po. It counts as functional.
The test system of test [16] is Suncus murinus. Put plainly: Effect on number of vomiting episodes at dose 16 ug/Kg administered po. In kind it is functional.
Test [17] concerns Suncus murinus. Put plainly: Effect on number of vomiting episodes at dose 8 ug/Kg administered po. In kind it is functional.
The test system of test [18] is Suncus murinus. Put plainly: Effect on number of suncus vomited at dose 8 ug/Kg administered ip (out of 5). It counts as functional.
Test [19] relates to Suncus murinus. The experiment in a line: Effect on latency at dose 8 ug/Kg administered ip. In kind it is functional.
Test [20] concerns Suncus murinus. Put plainly: Effect on number of suncus vomited at dose 4 ug/Kg administered ip (out of 5). It counts as functional.
Test [21] relates to Suncus murinus. The experiment in a line: Effect on number of suncus vomited at dose 8 ug/Kg administered ip. It counts as functional.
Test [22] relates to Suncus murinus. The experiment in a line: Effect on latency at dose 8 ug/Kg administered po. It counts as functional.
Test [23] has as its system Suncus murinus. Put plainly: Effect on number of suncus vomited at dose 16 ug/Kg administered po (out of 5). It counts as functional.
In test [24] the test system is Suncus murinus. The experiment in a line: Effect on number of suncus vomited at dose 32 ug/Kg administered po (out of 5). In kind it is functional.

The compound `CC(=O)OC[C@@H](C)NC(=O)[C@@H](CC(C)C)OC(=O)[C@@H](NC(=O)[C@@H](OC(=O)[C@@H](C)NC(=O)[C@@H](CC(C)C)OC(=O)[C@@H](NC(=O)[C@@H](OC(=O)[C@@H](C)NC(=O)[C@@H](CC(C)C)OC(=O)[C@@H](NC(=O)[C@@H](OC(C)=O)C(C)C)C(C)C)C(C)C)C(C)C)C(C)C)C(C)C` showed a Vacuole response in the test on HEp-2 of over 20000 ng/mL.
On the same count and under the same terms, under `CC(C)C[C@@H](OC(=O)[C@@H](NC(=O)[C@@H](O)C(C)C)C(C)C)C(=O)N[C@H](C)C(=O)O[C@H](C(=O)N[C@H](C(=O)O[C@H](CC(C)C)C(=O)N[C@H](C)C(=O)O[C@H](C(=O)N[C@H](C(=O)O[C@H](CC(C)C)C(=O)N[C@H](C)C(=O)O)C(C)C)C(C)C)C(C)C)C(C)C` stands 12000 ng/mL.
Take `CC(C)C[C@@H]1OC(=O)[C@H](C(C)C)NC(=O)[C@@H](C(C)C)OC(=O)[C@@H](C)NC(=O)[C@H](CC(C)C)OC(=O)[C@H](C(C)C)NC(=O)[C@@H](C(C)C)OC(=O)[C@@H](C)NC(=O)[C@H](CC(C)C)OC(=O)[C@H](C(C)C)NC(=O)[C@@H](C(C)C)OC(=O)[C@@H](C)NC1=O` (stereo in doubt; form 1): the Latency in the test with Suncus murinus [1] is 5.3 min; with Suncus murinus [4], 15 min; with Suncus murinus [5], 5.9 min; in the test on Suncus murinus [7] it was 4.4 min; with Suncus murinus [15] it was 6.3 min; with Suncus murinus [19], 5.7 min. The “No. of suncus vomited” value in the test with Suncus murinus [2] is 1; in the test with Suncus murinus [6], 5; in the test with Suncus murinus [8], 0; in the test on Suncus murinus [11], 0; in the test with Suncus murinus [14], 3; with Suncus murinus [18], 2. In addition, in the test on Suncus murinus [20], the “No. of suncus vomited” value was found to be 1. Moreover, the “No. of vomiting episodes” value in the test with Suncus murinus [3] is 8.4; in the test on Suncus murinus [9] it was 4; in the test with Suncus murinus [10], 7.3; in the test with Suncus murinus [12], 6.8; in the test on Suncus murinus [13], 7; in the test with Suncus murinus [16], 5.3. Further, the “No. of vomiting episodes” value in the test with Suncus murinus [17] is reported as 3. Moreover, the Vacuole response with HEp-2 turned out to be 5 ng/mL.
Take `CC(C)C[C@@H]1OC(=O)[C@H](C(C)C)NC(=O)[C@@H](C(C)C)OC(=O)[C@@H](C)NC(=O)[C@H](CC(C)C)OC(=O)[C@H](C(C)C)NC(=O)[C@@H](C(C)C)OC(=O)[C@@H](C)NC(=O)[C@H](CC(C)C)OC(=O)[C@H](C(C)C)NC(=O)[C@@H](C(C)C)OC(=O)[C@@H](C)NC1=O` (stereo in doubt; form 2): the Latency in the test on Suncus murinus [1] is listed as 6 min; in the test on Suncus murinus [7], 8.2 min; in the test on Suncus murinus [22] it was 6 min; in the test with Suncus murinus [15], 8.3 min; with Suncus murinus [19] it was 7 min. Also, the “No. of suncus vomited” value is recorded as 0 in the test on Suncus murinus [2]; 1 with Suncus murinus [21]; 5 in the test with Suncus murinus [14]; 3 in the test on Suncus murinus [23]; 5 in the test on Suncus murinus [24]; 0 with Suncus murinus [20]. For the same compound, the Vacuole response in the test with HEp-2 is 3 ng/mL. In addition, the “No. of vomiting episodes” value with Suncus murinus [10] was 10.3; with Suncus murinus [12], 5; in the test on Suncus murinus [13], 7.6; with Suncus murinus [16], 6.3.
